Experimental data from ChEMBL document CHEMBL1201862, “PubChem BioAssay data set” (2004).
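1) Cells in 96-well plates. 2) Compound, 48 h, 5 concentrations. 3) Linear interpolation between surrounding doses. 4) Unreached endpoint = highest concentration. GI50 marks 50% less growth.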 Activity calls are given as the source filed them. Rule as the data show it: active = GI50 up to about 1.1 µM and inactive = higher.

How the values were obtained:
Experiment in all cases: NCI-60 cell line screen, 48 h
NCI-H522 = test system: NCI-H522
SF-295 = test system: SF-295
ACHN = test system: ACHN
SR = test system: SR
IGROV-1 = test system: IGROV-1
CCRF-CEM = test system: CCRF-CEM
U-251 = test system: U-251
HT-29 = test system: HT-29
SF-268 = test system: SF-268
HCC 2998 = test system: HCC 2998
OVCAR-4 = test system: OVCAR-4
Malme-3M = test system: Malme-3M
LOX IMVI = test system: LOX IMVI
K562 = test system: K562
NCI-H23 = test system: NCI-H23
OVCAR-8 = test system: OVCAR-8
SK-OV-3 = test system: SK-OV-3
HOP-92 = test system: HOP-92

Measured: GI50

CCOC(=O)/C(C(=O)c1ccccc1)=C1/NCCN1C
inactive: NCI-H522 > 100 µM | SF-295 > 100 µM | ACHN > 100 µM | SR > 100 µM | IGROV-1 > 100 µM | CCRF-CEM > 100 µM | U-251 > 100 µM | HT-29 > 100 µM | SF-268 > 100 µM | HCC 2998 > 100 µM | OVCAR-4 > 100 µM | Malme-3M > 100 µM | LOX IMVI > 100 µM | K562 > 100 µM | NCI-H23 > 100 µM | OVCAR-8 > 100 µM

Cc1nc2nn(C)cc2c(=O)n1/N=C/c1ccccc1
inactive: NCI-H522 > 100 µM | SF-295 > 100 µM | ACHN > 100 µM | SK-OV-3 > 100 µM | SR > 100 µM | IGROV-1 > 100 µM | CCRF-CEM > 100 µM | U-251 > 100 µM | HT-29 > 100 µM | SF-268 > 100 µM | HCC 2998 > 100 µM | OVCAR-4 > 100 µM | Malme-3M > 100 µM | LOX IMVI > 100 µM | K562 > 100 µM | NCI-H23 > 100 µM | OVCAR-8 > 100 µM

O=C1C[C@@H]2[C@@H](CCC23CCCC3)N1
inactive: NCI-H522 > 100 µM | SF-295 > 100 µM | ACHN > 100 µM | SK-OV-3 > 100 µM | IGROV-1 > 100 µM | CCRF-CEM > 100 µM | U-251 > 100 µM | HT-29 > 100 µM | SF-268 > 100 µM | HCC 2998 > 100 µM | OVCAR-4 > 100 µM | Malme-3M > 100 µM | LOX IMVI > 100 µM | K562 > 100 µM | NCI-H23 > 100 µM | OVCAR-8 > 100 µM

CC1=C(c2ccccc2)C(c2ccccc2)=C(c2ccccc2)C2(c3ccccc3)C(=O)C(C)CN12 (configuration not stated)
inactive: NCI-H522 15.7 µM | SF-295 13.3 µM | ACHN 41.4 µM | SK-OV-3 > 100 µM | SR 26.4 µM | IGROV-1 99.5 µM | U-251 30.3 µM | HT-29 42.3 µM | SF-268 > 100 µM | HCC 2998 > 100 µM | OVCAR-4 20.8 µM | Malme-3M > 100 µM | LOX IMVI 58.7 µM | K562 > 10 µM | OVCAR-8 17.9 µM

Cc1c(C)n(COCCO)c2ncnc(N)c12
inactive: NCI-H522 > 100 µM | SF-295 > 100 µM | ACHN > 100 µM | SK-OV-3 > 100 µM | SR > 100 µM | IGROV-1 > 100 µM | CCRF-CEM > 100 µM | U-251 > 100 µM | HT-29 > 100 µM | SF-268 > 100 µM | HCC 2998 > 100 µM | OVCAR-4 > 100 µM | HOP-92 > 100 µM | K562 > 100 µM | NCI-H23 > 100 µM | OVCAR-8 > 100 µM

C[C@]12CCC3[C@@H](CC[C@@H]4c5nonc5CC[C@]34C)C1C/C(=N/O)C2=O (some centres not stated)
inactive: NCI-H522 24.6 µM | SF-295 52.2 µM | ACHN 41 µM | SK-OV-3 38.8 µM | IGROV-1 > 100 µM | CCRF-CEM 56.5 µM | U-251 > 100 µM | HT-29 > 100 µM | SF-268 11.2 µM | OVCAR-4 76 µM | Malme-3M > 100 µM | LOX IMVI 11.2 µM | HOP-92 46.5 µM | K562 > 100 µM | NCI-H23 > 100 µM | OVCAR-8 > 100 µM

O=C1C=CC(=O)c2c1ccc1c3ccccc3n(-c3ccccn3)c21
inactive: NCI-H522 4.15 µM | SF-295 > 100 µM | ACHN 21.2 µM | SK-OV-3 > 100 µM | CCRF-CEM 2.5 µM | U-251 > 100 µM | HT-29 28.4 µM | SF-268 31.7 µM | HCC 2998 > 100 µM | OVCAR-4 15.5 µM | Malme-3M 17.8 µM | HOP-92 15.6 µM | K562 4.98 µM | NCI-H23 36.6 µM | OVCAR-8 24.7 µM

CCOc1ccc2c(c1)[n+]([O-])c(-c1ccc(Br)cc1)c(N)[n+]2[O-]
inactive: NCI-H522 16.6 µM | SF-295 > 100 µM | ACHN 47.2 µM | SK-OV-3 > 100 µM | IGROV-1 67 µM | CCRF-CEM 53.1 µM | U-251 47.3 µM | HT-29 64.4 µM | SF-268 42.8 µM | HCC 2998 > 100 µM | OVCAR-4 > 100 µM | Malme-3M 55.6 µM | LOX IMVI > 100 µM | K562 75.5 µM | NCI-H23 22.8 µM | OVCAR-8 57.7 µM

CN(C)c1ccc(/C=N\N2C(=O)c3ccccc3C2=O)cc1
inactive: SF-295 > 100 µM | ACHN > 100 µM | SR > 100 µM | IGROV-1 > 100 µM | CCRF-CEM > 100 µM | HT-29 > 100 µM | SF-268 > 100 µM | HCC 2998 > 100 µM | OVCAR-4 > 100 µM | Malme-3M > 100 µM | LOX IMVI > 100 µM | HOP-92 > 100 µM | K562 > 100 µM | NCI-H23 > 100 µM | OVCAR-8 > 100 µM

COC(=O)CCC(=O)CC(=O)C(=O)Nc1ccc(F)cc1
inactive: NCI-H522 > 100 µM | ACHN > 100 µM | SK-OV-3 > 100 µM | IGROV-1 > 100 µM | CCRF-CEM > 100 µM | U-251 > 100 µM | HT-29 > 100 µM | SF-268 > 100 µM | HCC 2998 > 100 µM | OVCAR-4 > 100 µM | Malme-3M > 100 µM | LOX IMVI > 100 µM | HOP-92 > 100 µM | K562 > 100 µM | NCI-H23 > 100 µM | OVCAR-8 > 100 µM

COc1ccc2c(CCNC(=O)/C=C/c3ccccc3)c(C(C)=O)[nH]c2c1[N+](=O)[O-]
inactive: NCI-H522 3.35 µM | SF-295 3.87 µM | ACHN 50.4 µM | SR 7.28 µM | IGROV-1 18.3 µM | CCRF-CEM 5.35 µM | U-251 34.2 µM | HT-29 4.99 µM | SF-268 4.26 µM | HCC 2998 20 µM | OVCAR-4 21.8 µM | LOX IMVI 5.64 µM | K562 4.49 µM | NCI-H23 3.78 µM | OVCAR-8 17.9 µM

C[C@]12CCC3[C@@H](CC[C@@H]4c5nonc5CC[C@]34C)C1CCC2=O (some centres not stated)
inactive: NCI-H522 16.2 µM | SF-295 24.1 µM | ACHN 24.5 µM | SK-OV-3 36.7 µM | IGROV-1 40.6 µM | CCRF-CEM 21.8 µM | U-251 16 µM | HT-29 16.5 µM | SF-268 33.6 µM | OVCAR-4 23.8 µM | Malme-3M 23.3 µM | LOX IMVI 19.6 µM | HOP-92 20.8 µM | K562 29.4 µM | NCI-H23 24.5 µM | OVCAR-8 31.7 µM

O=S1(=O)NN=C(NCc2ccc(Cl)cc2)c2ccccc21
inactive: SF-295 > 100 µM | ACHN > 100 µM | IGROV-1 > 100 µM | CCRF-CEM 45.2 µM | U-251 50.4 µM | HT-29 > 100 µM | SF-268 > 100 µM | HCC 2998 > 100 µM | OVCAR-4 > 100 µM | Malme-3M > 100 µM | LOX IMVI 69 µM | HOP-92 35.3 µM | K562 38 µM | OVCAR-8 > 100 µM

C=CC1=CSNN1
inactive: NCI-H522 > 100 µM | SF-295 > 100 µM | ACHN > 100 µM | SK-OV-3 > 100 µM | IGROV-1 > 100 µM | CCRF-CEM > 100 µM | U-251 > 100 µM | HT-29 > 100 µM | SF-268 > 100 µM | HCC 2998 > 100 µM | OVCAR-4 > 100 µM | Malme-3M > 100 µM | LOX IMVI > 100 µM | HOP-92 > 100 µM | K562 > 100 µM | NCI-H23 > 100 µM | OVCAR-8 > 100 µM

Cc1[nH]c(O)nc1C(=O)c1ccc(-n2ccnc2)cc1
inactive: NCI-H522 > 100 µM | SF-295 > 100 µM | ACHN > 100 µM | SK-OV-3 > 100 µM | SR > 100 µM | IGROV-1 > 100 µM | U-251 > 100 µM | HT-29 > 100 µM | SF-268 > 100 µM | HCC 2998 > 100 µM | OVCAR-4 > 100 µM | Malme-3M > 100 µM | LOX IMVI > 100 µM | K562 > 100 µM | OVCAR-8 > 100 µM

O=C(O)CN(c1ccc(F)cc1)S(=O)(=O)c1ccccc1
inactive: NCI-H522 > 100 µM | SF-295 > 100 µM | ACHN > 100 µM | SK-OV-3 > 100 µM | IGROV-1 > 100 µM | CCRF-CEM > 100 µM | U-251 > 100 µM | HT-29 > 100 µM | SF-268 > 100 µM | OVCAR-4 > 100 µM | Malme-3M > 100 µM | LOX IMVI > 100 µM | HOP-92 > 100 µM | K562 > 100 µM | NCI-H23 > 100 µM | OVCAR-8 > 100 µM

O=C1c2ccccc2C(=O)c2c(O)c(O)cc(O)c21 [PURPURIN]
inactive: NCI-H522 33.6 µM | SF-295 51.6 µM | ACHN 27.4 µM | SK-OV-3 31.8 µM | IGROV-1 31.6 µM | CCRF-CEM 35 µM | U-251 35.6 µM | SF-268 42.4 µM | HCC 2998 32.7 µM | OVCAR-4 41 µM | Malme-3M 32.7 µM | LOX IMVI 43.7 µM | HOP-92 25.2 µM | K562 36.5 µM | NCI-H23 29.9 µM | OVCAR-8 55.5 µM
